Experiments:
[1] = system: phenylquinone-induced writhing reaction; experiment: phenylquinone-induced writhing test in mice; assay type: in vivo; settings: male NMRI mice, phenylquinone i.p. 10 minutes later; for inhibition in vivo at 10 mg/kg: Mus musculus, iv, 10 min, 10 mg/kg intravenously
Description: Analgesic Effect in the Writhing Test in Mice
The analgesic effect was investigated in the phenylquinone-induced writhing test in mice (as modified by I. C. Hendershot and J. Forsaith (1959) J. Pharmacol. Exp. Ther. 125, 237-240). Male NMRI mice weighing 25 to 30 g were used for the test. Groups of 10 animals each received by intraperitoineal application, for each substance dose, 0.3 ml/mouse of a 0.02% aqueous solution of phenylquinone (phenylbenzoquinone, Sigma Company, Deisenhofen; solution prepared with addition of 5% of ethanol and kept in a water bath at 45° C.) 10 minutes after intravenous administration of the test substances. The animals were placed individually in observation cages. The number of pain-induced stretching movements (so-called writhing reactions=straightening of the body together with stretching of the rear extremities) was measured by means of a push-button counter 5 to 20 minutes after administration of the phenylquinone. Animals that had received only physiological saline solution served as controls. All substances were tested in the standard dose of 10 mg/kg. The percentage inhibition (% inhibition) of the writhing reaction produced by a substance was calculated according to the following formula: [formula]

[2] = system: benzothiazepine binding site of the L-type calcium channel; experiment: Diltiazem binding, L calcium channel; parameters: species or system rat; settings: 10 μM, percentage inhibition, [3H]-cis-(+)-diltiazem 5 nM, rat cerebral cortex membranes
Description: Binding Investigations in the L Calcium Channel
Benzothiazepine Binding Site (Diltiazem Binding)
The biological membrane material was isolated from the rat cerebral cortex. [^3H]-cis-(+)-diltiazem (5 nM in the assay) was used as ligand. The material was incubated for 20 minutes at 25° C. The radioactivity that is measured in the presence of (±)-diltiazem (10^−6 M in the assay) is defined as non-specific binding. After completion of incubation the non-bound fraction of the radioactive ligand is separated by means of a filtration process using Whatman Glasfiber GF/B membranes. The membranes are washed and the radioactivity is then measured using a β-counter. The method is based on the details published by Schoemaker and Langer (H. Schoemaker and S. Z. Langer (1985) Eur. J. Pharmacol. 111, 273-277).
(§1) For this purpose IC50 values are obtained, which can be converted to inhibitor constants (Ki) according to the “Cheng-Prusoff equation” (Y. C. Clieng and W. H. Prusoff (1973) Biochem. Pharmacol. 22, 3099-3108). The IC50 values were obtained by means of the computer program “Figure P” (version 6.0, Biosoft, Cambridge, England). Km values were calculated according to Lineweaver and Burk (H. Lineweaver and D. Burk (1934) J. Am. Chem. Soc. 56, 658-666). The “Ligand” computer program (version 4, Biosoft, England) was used to obtain Ken values.

[3] = system: binding site 2 of the sodium channel; experiment: BTX binding, sodium channel; settings: 10 μM, percentage inhibition, [3H]-batrachotoxin A20 α-benzoate 10 nM, rat cerebral cortex synaptosomes
Description: Binding Investigations in the Sodium Channel
Binding Site 2 (BTX Binding)
The binding site 2 of the sodium channel is the so-called batrachotoxin (BTX) binding site. [^3H]-batrachlotoxin A20 α-benzoate (10 nM in the assay) was used as ligand. These ion channel particles (synaptosomes) were concentrated from rat cerebral cortex according to the procedure of Gray and Whittaker (E. G. Gray and V. P. Whittaker (1962) J. Anat. 76, 79-88). The radioactivity that is measured in the presence of veratridine (0.3 mM in the assay) is defined as non-specific binding. The material was incubated at 37° C. for 120 minutes. The assay conditions are carried out according to the protocol published by Pauwels, Leysen and Laduron (P. J. Pauwels, J. E. Leysen and P. M. Laduron (1986) Eur. J. Pharmacol. 124, 291-298).
(N=3, i.e. mean values±SEM from 3 independent series of experiments that were carried out in the form of triple parallel experiments).
as §1

[4] = molecular target: T1, NA transporter (Rattus norvegicus, UniProt Q63380); experiment: synaptosomal noradrenaline uptake inhibition (NA uptake inhibition); assay type: biochemical; settings: for inhibition at 1 µM: read-out: NA Uptake Inhibition at 1 μM, 1 μM in the assay, synaptosomes from rat hypothalamus; for NA Uptake Inhibition at 1 μM: 1 μM in the assay, synaptosomes from rat hypothalamus
T1 construct: synaptosomes are isolated fresh from rat brains; from tissue; host or cells: rat hypothalamus synaptosomes (P2 fraction)
T1 sequence (Q63380 1-617): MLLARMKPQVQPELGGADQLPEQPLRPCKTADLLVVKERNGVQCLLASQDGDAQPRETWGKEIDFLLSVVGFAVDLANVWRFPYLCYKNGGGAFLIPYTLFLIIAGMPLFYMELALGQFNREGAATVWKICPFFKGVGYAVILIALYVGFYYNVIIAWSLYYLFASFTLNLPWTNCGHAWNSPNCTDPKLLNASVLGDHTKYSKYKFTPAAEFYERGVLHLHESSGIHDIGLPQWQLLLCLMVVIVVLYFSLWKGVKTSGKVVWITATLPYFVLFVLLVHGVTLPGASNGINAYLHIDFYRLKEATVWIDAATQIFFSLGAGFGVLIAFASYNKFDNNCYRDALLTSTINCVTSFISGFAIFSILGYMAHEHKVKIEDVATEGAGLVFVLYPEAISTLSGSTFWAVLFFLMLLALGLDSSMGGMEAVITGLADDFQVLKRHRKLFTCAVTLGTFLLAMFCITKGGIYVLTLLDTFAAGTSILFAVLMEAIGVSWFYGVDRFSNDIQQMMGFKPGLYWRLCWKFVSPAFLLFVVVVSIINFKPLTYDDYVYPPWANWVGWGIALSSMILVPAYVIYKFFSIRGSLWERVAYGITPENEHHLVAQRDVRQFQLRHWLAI
Description: In order to carry out these in vitro studies, synaptosomes are isolated fresh from rat brains. In each case a so-called “P2” fraction is used, which is prepared according to the protocol of Gray and Whittaker (E. G. Gray and V. P. Whittaker (1962) J. Anat. 76, 79-88).
(in each case N=4, i.e. mean values±SEM from 4 independent series of experiments that were carried out in the form of triple parallel experiments).
as §1

CN(C)C(c1ccc(Br)cc1)C1CCCCC1(O)Cc1ccccc1.Cl (centres unmarked) [Example 61, 1-benzyl-2-[(4-bromophenyl)dimethylaminomethyl]cyclohexanol, hydrochloride]
inhibition in vivo at 10 mg/kg [1]: 90% | Diltiazem Binding at 10 μM [2]: 89% | BTX Binding at 10 μM [3]: 98% | inhibition at 1 µM [4]: 100%

CN(C)C(c1ccc(Cl)cc1)C1CCCCC1(O)c1ccc(C(F)(F)F)cc1.Cl (centres unmarked) [Example 62, 2-[(4-chlorophenyl)dimethylaminomethyl]-1-(4-trifluoromethylphenyl)cyclohexanol, hydrochloride]
inhibition in vivo at 10 mg/kg [1]: 94% | Diltiazem Binding at 10 μM [2]: 83% | BTX Binding at 10 μM [3]: 93% | inhibition at 1 µM [4]: 80%

CN(C)C(c1ccc(Cl)cc1)C1CCCCC1(O)Cc1cccc(C(F)(F)F)c1.Cl (centres unmarked) [Example 63, 2-[(4-chlorophenyl)dimethylaminomethyl]-1-(3-trifluoromethylbenzyl)cyclohexanol, hydrochloride]
inhibition in vivo at 10 mg/kg [1]: 86% | Diltiazem Binding at 10 μM [2]: 95% | BTX Binding at 10 μM [3]: 99% | inhibition at 1 µM [4]: 94%

CN(C)C(c1cccc(Oc2ccccc2)c1)C1CCCCC1(O)Cc1ccc(C(C)(C)C)cc1.Cl (centres unmarked) [Example 64, 1-(4-tert.-butylbenzyl)-2-[dimethylamino-(3-phenoxyphenyl)methyl]cyclohexanol, hydrochloride]
inhibition in vivo at 10 mg/kg [1]: 88% | Diltiazem Binding at 10 μM [2]: 87% | BTX Binding at 10 μM [3]: 100% | inhibition at 1 µM [4]: 36%

CN(C)C(c1ccc(C#N)cc1)C1CCCCC1(O)c1ccc(C(F)(F)F)cc1.Cl (centres unmarked) [Example 65, 4-{dimethylamino-[2-hydroxy-2-(4-trifluoromethylphenyl)cyclohexyl]methyl}benzonitrile, hydrochloride]
inhibition in vivo at 10 mg/kg [1]: 76% | Diltiazem Binding at 10 μM [2]: 72% | BTX Binding at 10 μM [3]: 78% | inhibition at 1 µM [4]: 0%

Cc1ccccc1C(C1CCCCC1(O)c1ccccc1)N(C)C.Cl (centres unmarked) [Example 66, 2-(dimethylamino-o-tolylmethyl)-1-phenylcyclohexanol, hydrochloride]
inhibition in vivo at 10 mg/kg [1]: 91% | Diltiazem Binding at 10 μM ([2]; hydrochloride): 65% | BTX Binding at 10 μM ([3]; hydrochloride): 89% | NA Uptake Inhibition at 1 μM ([4]; hydrochloride): 15%

Cc1ccccc1C(C1CCCCC1(O)Cc1ccccc1)N(C)C.Cl (centres unmarked) [Example 67, 1-benzyl-2-(dimethylamino-o-tolylmethyl)cyclohexanol, hydrochloride]
inhibition in vivo at 10 mg/kg [1]: 84% | Diltiazem Binding at 10 μM [2]: 98% | BTX Binding at 10 μM [3]: 97% | inhibition at 1 µM [4]: 83%

CN(C)C(c1ccccc1)C1CCCCC1(O)CCCc1ccccc1.Cl (centres unmarked) [Example 68, 2-(dimethylaminophenylmethyl)-1-(3-phenylpropyl)cyclohexanol, hydrochloride]
inhibition in vivo at 10 mg/kg [1]: 55% | Diltiazem Binding at 10 μM [2]: 88% | BTX Binding at 10 μM [3]: 98% | inhibition at 1 µM [4]: 49%

CN(C)C(c1ccccc1Cl)C1CCCCC1(O)CCc1ccc(F)cc1.Cl (centres unmarked) [Example 69, 2-[(2-chlorophenyl)dimethylaminomethyl]-1-[2-(4-fluorophenyl)ethyl]cyclohexanol, hydrochloride]
inhibition in vivo at 10 mg/kg [1]: 45% | Diltiazem Binding at 10 μM [2]: 93% | BTX Binding at 10 μM [3]: 96% | inhibition at 1 µM [4]: 76%

CN(C)C(c1cccs1)C1CCCCC1(O)Cc1cccc(C(F)(F)F)c1.Cl (centres unmarked) [Example 70, 2-[dimethylaminothiophen-2-ylmethyl]-1-(3-trifluoromethylbenzyl)cyclohexanol, hydrochloride]
% Inhibition of the writhing reaction at 10 mg/kg intravenously [1]: 98% | Diltiazem Binding at 10 μM [2]: 91% | BTX Binding at 10 μM [3]: 93% | NA Uptake Inhibition at 1 μM [4]: 74%

COC(=O)c1ccc(C2(O)CCCCC2C(c2ccccc2)N(C)C)cc1.Cl (centres unmarked) [Example 71, Methyl-4-[2-(dimethylaminophenylmethyl)-1-hydroxycyclohexyl]benzoate, hydrochloride]
inhibition in vivo at 10 mg/kg [1]: 55% | Diltiazem Binding at 10 μM [2]: 74% | BTX Binding at 10 μM [3]: 81% | inhibition at 1 µM [4]: 88%

CN(C)C(c1ccccc1)C1CC(c2ccccc2)CCC1(O)Cc1ccccc1.Cl (centres unmarked) [Example 72, 1-benzyl-2-(dimethylaminophenylmethyl)-4-phenylcyclohexanol, hydrochloride]
inhibition in vivo at 10 mg/kg [1]: 89% | Diltiazem Binding at 10 μM [2]: 97% | BTX Binding at 10 μM [3]: 99% | inhibition at 1 µM [4]: 64%

CN(C)C(c1ccccc1)C1CCCCC1(O)c1ccc(Br)cc1.Cl (centres unmarked) [Example 73]
% Inhibition of the writhing reaction at 10 mg/kg intravenously [1]: 75% | Diltiazem Binding at 10 μM [2]: 89% | BTX Binding at 10 μM [3]: 93% | NA Uptake Inhibition at 1 μM [4]: 61%

CN(C)C(c1ccccc1)C1CCCCC1(O)c1cccc2ccccc12.Cl (centres unmarked) [Example 74, 2-(dimethylaminophenylmethyl)-1-naphthalene-1-ylcyclohexanol, hydrochloride]
inhibition in vivo at 10 mg/kg [1]: 37% | Diltiazem Binding at 10 μM [2]: 83% | BTX Binding at 10 μM [3]: 93% | inhibition at 1 µM [4]: 24%

CSc1ccccc1C1(O)CCCCC1C(c1ccccc1)N(C)C.Cl (centres unmarked) [Example 75, 2-(dimethylaminophenylmethyl)-1-(2-methylsulfanylphenyl)cyclohexanol, hydrochloride]
inhibition in vivo at 10 mg/kg [1]: 57% | Diltiazem Binding at 10 μM [2]: 89% | BTX Binding at 10 μM [3]: 93% | inhibition at 1 µM [4]: 0%

CN(C)C(c1ccc2ccccc2c1)C1CCCCC1(O)Cc1ccccc1.Cl (centres unmarked) [Example 76, 1-benzyl-2-(dimethylaminonaphthalene-2-ylmethyl)cyclohexanol, hydrochloride]
inhibition in vivo at 10 mg/kg [1]: 60% | Diltiazem Binding at 10 μM [2]: 73% | BTX Binding at 10 μM [3]: 90% | inhibition at 1 µM [4]: 80%

CN(C)C(c1c(F)c(F)c(F)c(F)c1F)C1CCCCC1(O)Cc1ccccc1.Cl (centres unmarked) [Example 77, 1-benzyl-2-(dimethylaminopentafluorophenylmethyl)cyclohexanol, hydrochloride]
inhibition in vivo at 10 mg/kg [1]: 54% | Diltiazem Binding at 10 μM [2]: 27% | BTX Binding at 10 μM [3]: 56% | inhibition at 1 µM [4]: 27%

Cl.OC1(Cc2ccccc2)CCCCC1C(c1ccccc1)N1CCCCC1 (centres unmarked) [Example 78, 1-benzyl-2-(phenylpiperidin-1-ylmethyl)cyclohexanol, hydrochloride]
inhibition in vivo at 10 mg/kg [1]: 73% | Diltiazem Binding at 10 μM [2]: 95% | BTX Binding at 10 μM [3]: 96% | inhibition at 1 µM [4]: 84%

CN(C)C(c1ccccc1)C1CCCCC1(O)c1ccc(C(F)(F)F)cc1.Cl (centres unmarked) [Example 79]
% Inhibition of the writhing reaction at 10 mg/kg intravenously [1]: 71% | Diltiazem Binding at 10 μM [2]: 67% | BTX Binding at 10 μM [3]: 93% | NA Uptake Inhibition at 1 μM [4]: 58%

CCC(O)(Cc1ccc(C(C)(C)C)cc1)C(C)C(c1ccccc1)N(C)C.Cl (centres unmarked) [Example 80]
% Inhibition of the writhing reaction at 10 mg/kg intravenously [1]: 61% | Diltiazem Binding at 10 μM [2]: 100% | BTX Binding at 10 μM [3]: 100% | NA Uptake Inhibition at 1 μM [4]: 18%

Source: US6410790B1, “3-amin3-arylpropan-1-ol compounds, their preparation and use” (priority 1999, dated 2002)
